Source: US20260098043A1, “POLYCYCLIC COMPOUND AND USE THEREOF” (HAINAN SIMCERE ZAIMING PHARMECEUTICAL CO., LTD., priority 2022, published 2026)
Where two headings read alike, the source gives them in different places.

Tests used:
human Cereblon WT = target: T1, human Cereblon WT (Homo sapiens, UniProt Q96SW2); assay: Cereblon binding experiment (HTRF Human Cereblon Binding Kit, competition with XL665-labeled lenalidomide tracer); settings: 3 h incubation at room temperature, 100% inhibition = 200 μM lenalidomide, read-out: IC50 (binding ability to Cereblon)
T1 construct: purchased
Description: The detection kit (HTRF Human Cereblon Binding Kits) used in the experiment was a detection method for the quantitative measurement of Cereblon WT ligands using HTRF® technology. The detection principle was based on HTRF technology, where the specifically labeled GST antibody (Euroum Cryptate, donor) simultaneously bound to the GST-labeled human Cereblon WT ligand and the XL665-labeled lenalidomide tracer (acceptor). The donor was excited by a light source to induce fluorescence resonance energy transfer (FRET) to the acceptor, and the acceptor emitted fluorescence at a specific wavelength of 665 nm. After the addition of a compound, the compound competed with the XL665-labeled lenalidomide to prevent FRET from occurring. […]
The compounds of the present disclosure were dissolved in DMSO at a stock concentration of 10 mM. […] The HTRF signal in each well was measured using an Envision plate reader. […]
The ratio of acceptor to donor emission signals was calculated for each well: […]
(§1) Data analysis was performed by GraphPad Prism 9. The concentration-response curves were obtained using non-linear four-parameter fitting, and the IC50 for the compound was calculated: […]
The binding ability of the compounds of the present disclosure to Cereblon was determined through the above test, and the measured IC50 values were shown in Table 1.

MV-4-11 cells = assay: Antiproliferative activity for MV-4-11 cells (CellTiter-Glo, 3 days); assay type: cell-based; settings: Homo sapiens, MV4-11, 72 h, read-out: IC50 (antiproliferative activity for MV-4-11 cells)
Procedure: The medium of the target cells MV-4-11 (CBP60522, Cobioer) was removed, and PBS was added for rinsing once, followed by digestion with trypsin (Trypsin-EDTA (0.25%)) for 5 min. After the digestion, 10 mL of a complete medium (IMDM+10% FBS) was added to neutralize the trypsin. The cells were then pipetted and collected, centrifuged at 1000 rpm for 5 min, and counted. The cell density was adjusted to 30,000 cells/mL. 90 μL of the cell suspension was added to a 96-well low-adsorption plate. 200 μL of PBS was added to the edge wells of the 96-well plate. The plate was centrifuged at 1000 rpm for 5 min to form cell spheroids, which were then incubated in a cell incubator overnight. […]
The cells were removed from the incubator and allowed to return to room temperature within 30 min. 50 μL of the CellTiter-Glo® Cell Viability Assay reagent was added, and the plate was shaken to mix thoroughly for 10 min before it was read on the Envision microplate reader.
The antiproliferative activity of the compounds of the present disclosure for MV-4-11 cells was determined through the above test, and the cell growth inhibition rate for each sample well was calculated based on the raw data.
as §1

BRD4 = target: T2, BRD4 (Homo sapiens, UniProt O60885); assay: Degradation activity for BRD4 proteins in MV-4-11 cells (Western blot, 6 h); assay type: cell-based; settings: for DC50: read-out: DC50 of BRD4 protein degradation
T2 construct: The degradation activity for BRD4 proteins in MV-4-11 cells; host or cells: MV-4-11
Procedure: The medium of MV-4-11 (CBP60522, Cobioer) was removed, and PBS was added for rinsing once, followed by digestion with trypsin (Trypsin-EDTA (0.25%)) for 5 min. After the digestion, 10 mL of a complete medium (an IMDM medium containing 10% FBS) was added to neutralize the trypsin. The cells were then pipetted and collected, centrifuged at 1000 rpm for 5 min, and counted. The cell density was adjusted to 500,000 cells/mL. 2 mL of the cell suspension was added to a 12-well plate, and the plate was incubated in a cell incubator overnight.
The compounds of the present disclosure were dissolved in DMSO at a stock concentration of 10 mM. The compound stock solution was subjected to gradient dilution (4-fold dilution), resulting in 8 concentration points. DMSO was used as the negative control group, and the DMSO content was 0.1%. After mixing the compound with the cell suspension thoroughly, the mixture was incubated at 37° C. with 5% CO2 for 6 h.
Six hours after drug treatment, the supernatant was discarded, and the cells were washed with 1000 μL of pre-cooled PBS. 100 μL of RIPA lysis buffer (25 mM Tris-HCl, pH=7.5, 150 mM NaCl, 1% NP-40, 1 mM EDTA, pH=8.0, 1 mM PMSF, 1 mM Na3VO4, and 1× Protease Inhibitor Cocktail-P2714, Sigma) was added and placed on ice for lysis for 10 min. The lysed cell samples were collected and centrifuged at 12000 rpm at 4° C. for 30 min. The concentration of each protein sample was determined using the Pierce BCA kit for protein quantification. An appropriate amount of 5×SDS-PAGE protein loading buffer was added to the collected protein samples, and the mixtures were then heated in a metal bath at 100° C. for 10 min to fully denature the proteins. The protein samples were loaded into the SDS-PAGE gel loading wells and electrophoresed at a constant voltage of 120 V for 60 min. After the electrophoresis, the gel was transferred to a PVDF membrane using a Bio-bad transfer apparatus. After the transfer, the band was cut according to the size of the target protein and blocked with 5% BSA (prepared by dissolving 5 g of BSA in 100 mL of TBST) at room temperature for 1 h. […] The proteins were detected using the SuperSignal West Atto ultra-sensitive ECL luminescent liquid.
The degradation activity for BRD4 proteins in MV-4-11 cells by the compounds of the present disclosure was determined through the above test. The gray values of the target sample bands were read using Image J software, and the protein degradation rate for each sample well was calculated based on the raw data.
[formula] • wherein: • All raw data were processed for data analysis using GraphPad Prism 9. The concentration-response curves were obtained using non-linear four-parameter fitting, and the DC50 for the compound was calculated: […]

[1] = MV-4-11 cells, 6 h, Western blot

SMILES | IC50 (human Cereblon WT) [nM] | DC50 (BRD4; [1]) [nM] | further results
Cn1c(=O)n(C2CCC(=O)NC2=O)c2ccc3ccccc3c21 (centres unmarked) [Compound 1, 3-(1-methyl-2-oxo-1,2-dihydro-3H-naphtho[1,2-d]imidazol-3-yl)piperidine-2,6-dione] | 188 | – | –
Cc1sc2c(c1C)C(c1ccc(Cl)cc1)=N[C@@H](CC(=O)NCCCCCC(=O)NCc1ccc3ccc4c(c3c1)n(C)c(=O)n4C1CCC(=O)NC1=O)c1nnc(C)n1-2 (stereo partly drawn) [Compound 2, 6-(2-((S)-4-(4-chlorophenyl)-2,3,9-trimethyl-6H-thieno[3,2-f][1,2,4]triazolo[4,3-a][1,4]diazepin-6-yl)acetamido)-N-((3-(2,6-dioxopiperidin-3-yl)-1-methyl-2-oxo-2,3-dihydro-1H-naphtho[1,2-d]imidazol-8-yl)methyl)hexanamide] | – | 2.19 | IC50 (MV-4-11 cells): 3.8 nM; Dmax (BRD4; MV4-11, read-out: Maximum degradation rate (%) of BRD4 protein): 85.6%
Cc1sc2c(c1C)C(c1ccc(Cl)cc1)=N[C@@H](CC(=O)NCCCCCC(=O)NCc1cccc3c1ccc1c3n(C)c(=O)n1C1CCC(=O)NC1=O)c1nnc(C)n1-2 (stereo partly drawn) [Compound 3, 6-(2-((S)-4-(4-Chlorophenyl)-2,3,9-trimethyl-6H-thieno[3,2-f][1,2,4]triazolo[4,3-a][1,4]diazepin-6-yl)acetamido)-N-((3-(2,6-dioxopiperidin-3-yl)-1-methyl-2-oxo-2,3-dihydro-1H-naphtho[1,2-d]imidazol-6-yl)methyl)hexanamide] | – | 11.2 | IC50 (MV-4-11 cells; MV-4-11 cells, 3 days, CellTiter-Glo): 14.1 nM; Dmax (BRD4; MV4-11, MV-4-11 cells, 6 h, Western blot, read-out: Maximum degradation rate (%) of BRD4 protein): 74.3%
Cn1c(=O)n(C2CCC(=O)NC2=O)c2ccc3c(c21)CNCC3 (centres unmarked) [Compound 8, 3-(1-methyl-2-oxo-1,2,6,7,8,9-hexahydro-3H-imidazo[4,5-h]isoquinolin-3-yl)piperidine-2,6-dione, reference compound] | 8700 | – | –
